Measurements as given in patent US20090047214A1, “Novel methylation marker” (OncoMethylome Sciences S.A., priority 2006, published 2009).

Experiments:
[1] = test system: primary colorectal tumors; assay: Overall survival of colorectal cancer patients treated with irinotecan, by WRN methylation status (Kaplan-Meier); format: in vivo, human; settings: WRN methylated colon tumors (n=45)
Method: Contingency tables were analyzed by Fisher's exact test. Overall survival curves were estimated by the Kaplan-Meier method and were compared with the use of the log-rank test. All statistical analyses were performed using the SPSS version 10.1 program (SPSS Inc, Chicago, Ill.).

[2] = test system: MCF-7 cells (unmethylated WRN promoter); assay: Apoptosis by flow cytometry; format: cell-based, human; settings: MCF-7, WRN unmethylated
Method: (§1) The percentage of apoptotic cells was determined by flow cytometry using Vybrant® Apoptosis Assay Kit #4-YO-PRO®-1/propidium iodide (Molecular Probes/Invitrogen). Briefly, cells were washed twice with ice cold PBS and resuspended in PBS containing YO-PRO®-1/propidium iodide. Apoptotic cells were identified by flow cytometry after 20 min of incubation. Cytogenetic assay was performed as previously described (Herranz et al., 2006) analyzing one-hundred metaphases for each experimental condition.

[3] = test system: MDA-MB-231 cells (WRN promoter hypermethylation); assay: Apoptosis by flow cytometry; format: cell-based, human; settings: MDA-MB-231, WRN hypermethylated; increasing concentrations
Method: as §1

[4] = test system: U937 cells (WRN promoter hypermethylation); assay: Apoptosis by flow cytometry; format: cell-based, human; settings: U937, WRN hypermethylated; increasing concentrations
Method: as §1

[5] = test system: lymphoblastoid cell line from a WS patient (WS-/-); assay: Apoptosis by flow cytometry; format: cell-based, human; settings: WS patient lymphoblastoid cells, positive control
Method: (§2) The eleven human cancer cell lines examined in this study were obtained from the American Type Culture Collection (ATCC) (Rockland, Md., USA) and the German Collection of Microorganisms and Cell Cultures (DSMZ, Braunschweig, Germany). The cell lines represented three different types of malignancies, colon (HCT-116, COLO-205), breast (MCF-7, MDA-MB-468, MDAMB-231) and leukaemia (HL-60, KG1a, U937, REH, Jurkat, K562). Cell lines were maintained in appropriate media and treated with 1 μM 5-aza-2′-deoxycytidine (Sigma) for 3 days to achieve demethylation, as previously described (Herman et al., 1998; Ropero et al., 2004). WS−/− cells (AG11395) were obtained from the Coriel Cell Repositories (Camden, N.J., USA). The collection of primary tumor samples analyzed has been described elsewhere (Esteller et al., 2001; Ropero et al., 2004).
as §1

[6] = test system: WRN-transfected MDA-MB-231 cells; assay: Apoptosis by flow cytometry; format: cell-based, human; settings: MDA-MB-231 transfected with WRN
Method: as §1
(§3) The WRN coding sequence corresponding to the cDNA from a BLCL lymphoblastoid-EBV immortalized cell line was amplified by PCR and directly cloned into the pGEM-T Easy Vector (Promega, Winsconsin USA). The WRN insert was subcloned into the pEGFP-N1 expression vector (Invitrogen) and confirmed by sequencing. For transfection experiments we used the pEGFP-N1 vector containing the WRN gene, or the pEGFP-N1 empty vector. Transfection of MDA-MB-231 and U937 cells was performed by electroporating […] in 0.8 ml PBS with 40 μg of the vector at 250 V and 975 μF. After electroporation, cells were washed with PBS and seeded with 10^6 cells/ml in fresh medium containing 20% FBS. Transfected cells were selected by the addition of G418 (600 μg/ml).

[7] = test system: WRN-transfected U937 cells; assay: Apoptosis by flow cytometry; format: cell-based, human; settings: U937 transfected with WRN
Method: as §1, §3

[8] = test system: lymphoblastoid cells from a WS patient; assay: Cytogenetic chromosomal breakage analysis; format: cell-based, human; settings: metaphases
Method: as §2, §1

[9] = test system: HL60 cells (unmethylated WRN promoter); assay: Cytogenetic chromosomal breakage analysis; format: cell-based, human; settings: metaphases
Method: as §1

[10] = test system: MCF-7 cells (unmethylated WRN promoter); assay: Cytogenetic chromosomal breakage analysis; format: cell-based, human; settings: MCF-7, WRN unmethylated; metaphases
Method: as §1

[11] = test system: MDA-MB-231 cells (WRN aberrant methylation); assay: Cytogenetic chromosomal breakage analysis; format: cell-based, human
Method: as §1

[12] = test system: WRN-transfected MDA-MB-231 cells; assay: Cytogenetic chromosomal breakage analysis; format: cell-based, human; design: dose or concentration left out as unconfirmed
Method: as §1, §3

[13] = test system: WRN RNA transcript and protein; assay: Reactivation of WRN expression in WRN-hypermethylated cancer cell lines (RT-PCR, western blot, immunofluorescence); format: cell-based, human; settings: HCT-116, COLO-205, MDA-MB-231 and U937 cell lines; 1 μM for 3 days
Method: as §2
RNA was isolated using TRIzol (Life Technologies, Gaithersburg, Md., USA). 2 μg of RNA was reverse-transcribed using SuperScript II reverse transcriptase (Gibco/BRL) and amplified using specific primers for WRN (forward: 5′-GCATGTGTTCGGAAGAGTGTTT-3-(SEQ ID. NO: 6), reverse: 5′-TGACATGGAAGAAACGTGGAA-3 (SEQ ID. NO: 7)) and for GAPDH. […] Cell lysates for protein analysis were prepared and analyzed by western blotting using the WRN antibody ab200 (Rabbit Polyclonal, Abcam). […]

[14] = test system: WRN-associated exonuclease activity in U937 cells; assay: Exonuclease activity assay in WRN-immunoprecipitated cell extracts; format: cell-based, human; settings: 1 μM for 3 days
Method: as §2
The exonuclease enzymatic activity was measured as previously described (Brosh et al., 2001). […] The digestion products of these reactions were separated on 15% denaturing polyacrylamide gels, visualized using a PhosphorImager (Molecular Dynamics), and quantitated using ImageQuant software (Molecular Dynamics).

Compound	induction of apoptosis [2]	induction of apoptosis [3]	induction of apoptosis [4]	induction of apoptosis [5]	induction of apoptosis [6]	induction of apoptosis [7]	also measured
CCc1c2c(nc3ccc(OC(=O)N4CCC(N5CCCCC5)CC4)cc13)-c1cc3c(c(=O)n1C2)COC(=O)[C@]3(O)CC [irinotecan]	–	–	–	–	–	–	median time to the death of the patient [1]: 39.4 months
CC[C@@]1(O)C(=O)OCc2c1cc1n(c2=O)Cc2cc3ccccc3nc2-1 [camptothecin]	markedly resistant	optimal inductors of apoptosis	optimal inductors of apoptosis	same phenomena	resistant to the apoptosis	resistant to the apoptosis	chromosomal breakage [8]: extremely sensitive; chromosomal breakage [9]: minimal chromosomal breakage; chromosomal breakage [10]: minimal chromosomal breakage; chromosomal breakage ([11]; MDA-MB-231, WRN methylated, metaphases): extremely sensitive; chromosomal breakage ([12]; MDA-MB-231 transfected with WRN, metaphases): acquired a resistance
Nc1ncn([C@H]2C[C@H](O)[C@@H](CO)O2)c(=O)n1 [5-aza-2′-deoxycytidine]	–	–	–	–	–	–	expression of WRN RNA transcript and protein [13]: restored the expression; WRN-associated exonuclease activity [14]: significant increase
CO[C@@]12[C@H](COC(N)=O)C3=C(C(=O)C(C)=C(N)C3=O)N1C[C@@H]1N[C@@H]12 [mitomycin C]	markedly resistant	optimal inductors of apoptosis	optimal inductors of apoptosis	same phenomena	resistant to the apoptosis	resistant to the apoptosis	chromosomal breakage ([11]; MDA-MB-231 (empty vector), 50 mg/ml): massive breakage; chromosomal breakage ([12]; MDA-MB-231 transfected with the WRN gene): resistance to the genome damage
